“Also recorded” adds a separate entry of the source. Like-named read-outs stand apart in the source and are kept apart here. Ends that are not written are not given here.

Data set [1] concerns LPS from E. coli serotype 0111:B4. Description: LPS neutralization assay (Limulus amoebocyte lysate, QCL-1000). Particulars: read-out: IC50 values (μM) for LPS binding, E. coli 0111:B4. The class given is biochemical. A digest of the protocol:
(§1)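 Neutralization of endotoxin was measured as loss of LAL proenzyme activation driven by 0.04 units LPS, read as pNA at 405-410 nm; IC50 from sigmoidal fit.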

The subject of data set [2] is LPS from E. coli serotype 055:B5. The description is as above. The class given is biochemical. A digest of the protocol:
(§2)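 Compounds were tested for inhibition of LPS-triggered activation of the Limulus amoebocyte lysate proenzyme, which cleaves a chromogenic substrate to release p-nitroaniline read at 405-410 nm. Each LPS was used at 0.04 units. IC50 came from sigmoidal dose-response fits.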

For the next data set, the system named is LPS from P. aeruginosa. Described as above. The class given is biochemical, Pseudomonas aeruginosa. The settings on record: read-out: IC50 values (μM) for LPS binding, P.a. In short, it runs like this: as §1
In another data set the test system is LPS from K. pneumoniae. Described as above. Format: biochemical, Klebsiella pneumoniae. Particulars: read-out: IC50 values (μM) for LPS binding, Klebsiella. In short, it runs like this: as §2
Another data set concerns LPS from S. typhimurium. Described as above. The settings on record: read-out: IC50 values (μM) for LPS binding, Salmonella. Format: biochemical, Salmonella typhimurium. In short, it runs like this: as §1
The next data set relates to LPS from S. marcascens. The description is as above. Format: biochemical, Serratia marcascens. The settings on record: read-out: IC50 values (μM) for LPS binding, Serratia. A digest of the protocol:
as §1

The test system of data set [3] is LPS from six species of bacteria. The data set can be described thus: LPS neutralization assay, overall statements. The class given is biochemical. The settings on record: library of 23 compounds. The source says:
The ability of compounds to neutralize endotoxin was detected in vitro by using the chromogenic QCL-1000 kit from BioWhittaker, Inc. (Walkersville, Md.), and as described in their protocol. This Limulus amoebocyte lysate (LAL) assay is quantitative for Gram negative bacterial endotoxin (lipopolysaccharide, LPS). In this assay compounds that are active inhibit the LPS-mediated activation of a proenzyme whose active form would release p-nitroaniline (pNA) from a colorless synthetic substrate producing a yellow color (pNA) whose absorption is monitored spectrophotometrically at 405-410 nm. The initial rate of enzyme activation is proportional to the concentration of endotoxin present.
Variants of LPS from six Gram negative bacteria were used: E. coli serotypes 0111:B4 (Combrex, Walkersville, Md.) and 055:B5 (Sigma, St. Louis, Mo.); Klebsiella pneumoniae (List Biologies, San Jose, Calif.); Pseudomonas aeruginosa (List Biologies, San Jose, Calif.); Salmonella typhimurium (List Biologies, San Jose, Calif.), and Serratia marcascens (List Biologies, San Jose, Calif.). The concentration of compound required to neutralize a given LPS and therefore to inhibit the Limulus amoebocyte lysate driven by 0.04 units of any given LPS was determined by dose response curves fit by using a standard sigmoidal function to determined the JC50 value for each lopomimetic compound. […]

The test system of another data set is LPS from E. coli 055:B5. The data set can be described thus: Endotoxemia study in mice, lethal dose of E. coli 055:B5 LPS. Format: in vivo. The settings on record: E. coli 055:B5 LPS 600 μg; 5 mg/kg. How it is done: In three separate studies, these compounds were tested against LPS derived from E. coli serotype 0111:B4, E. coli serotype 055:B5 LPS, and Salmonella. The compounds (in a final concentration of 2% DMSO v/v), were first mixed individually with LPS, and incubated for 30 minutes prior to i.p. injection into C57/BL6 mice (n=4-8/group). The control mice were treated with DMSO (2% v/v) alone. Each mouse received a lethal dose of LPS, with or without one of the compounds.
(§3) J Bacteriol 93, 1463-4 (1967)). Mice were provided food and water as usual ad libitum, and monitored for several days. When it was observed that mice were in distress and death was imminent, animals were sacrificed; in some cases, mice expired during the night and were found dead the following morning. Data are plotted as the number of surviving mice versus lime in hours. Statistical analysis was performed on the average amount of survival time per group with a maximum or 120 hours (surviving mice) by using the Student's t-test.

A short description of data set [4]: Acute toxicity observed in the endotoxemia model. The class given is in vivo, mice. The settings on record: i.p., single dose of 50 mg/kg, together with LPS. How it is done: as §3, with “C57 male black mice were injected i.p. with a solution that contained a lethal dose of LPS [600 μg of LPS from E. coli 055:B5 and Salmonella, and 500 μg of LPS from […]] and 1.25 mg of the lopomimetic compound (a dose of 50 mg/kg) (Rifkind, D. J” for “J”

The next data set relates to fibroblasts. Description: Proliferation of fibroblasts (general cell toxicity check). The class given is cell-based.
The subject of another data set is B16F10 tumor cells. The data set can be described thus: Proliferation of B16F10 tumor cells. The class given is cell-based, murine.
In another data set the test system is MA148 tumor vessels. The data set can be described thus: Histological analysis of microvessel density, anti-CD31 staining, MA148 tumors. Format: in vivo, mice. The settings on record: MA148, 10 mg/kg; mean ± standard error, 20 images. How it is done: (§4) Immunohistochemistry was used to assess microvessel density and the extent of total cell apoptosis. Approximately, tumors of the same size and with no apparent necrosis were selected for processing. On the last day of treatment mice were sacrificed and tumors were excised. Tumor tissue was embedded in tissue freezing medium (Miles Inc, Elkart, Ind.) and shock frozen in liquid nitrogen. Sections of tissue (10 μm thickness) were prepared for immunohistochemical analysis. For this, tissue sections were brought to room temperature, air dried overnight, and then fixed in acetone for 10 minutes. Slides were allowed to air dry for at least 30 minutes and were washed three limes for 5 minutes each in phosphate-buffered saline (PBS, pH 7.4). Samples were then blocked with PBS containing 0.1% bovine serum albumin and 3% human serum albumin for at least 30 minutes at room temperature in a humidified box. Samples were subsequently incubated with phycoerytrin (PE)-conjugated monoclonal antibody to CD31 (PECAM-1) in a 1:50 dilution (Pharmigen, San Diego, Calif.) to stain for microvessel density.
(§5) Digital images were stored and processed using Adobe Photoshop (Adobe Inc., Mountain View Calif.). Quantification of microvessel density, were determined as described previously (Dings et al., Cancer Res 63, 382-385 (2003)). Statistical analysis was performed using the Student's t-test.

A further data set relates to MA148 tumor. The data set can be described thus: TUNEL staining for total cell apoptosis, MA148 tumors. Format: in vivo, mice. The settings on record: MA148, 10 mg/kg; mean ± standard error, 20 images. How it is done:
(§6) To assess the extent of total cell apoptosis, tumor tissue sections were stained by using the TUNEL (terminal deoxyribonucleotidyl transferase-mediated dUTP-nick-end labeling) assay, which was performed according to the manufacturer's instructions (In situ cell death detection kit, fluorescein; TUNEL, Roche). After 1-hour incubation at room temperature, slides were washed with PBS and immediately imaged using an Olympus BX-60 fluorescence microscope at 200× magnification.

Another data set relates to B16F10 tumor vessels. Description: Histological analysis of microvessel density, anti-CD31 staining, B16F10 tumors. Format: in vivo, mice. The settings on record: B16F10, 10 mg/kg; mean ± standard error, 20 images. How it is done: as §4, §5
A further data set relates to B16F10 tumor. The data set can be described thus: TUNEL staining for total cell apoptosis, B16F10 tumors. Format: in vivo, mice. Particulars: B16F10, 10 mg/kg; mean ± standard error, 20 images. How it is done:
as §6

Data set [5] in a line: Toxicity assays in tumor-bearing mice: behavior, body weight, organ morphology. The class given is in vivo. The settings on record: all in vivo tumor experiments. How it is done:
(§7) As an indirect measurement of general toxicity, body weights of mice were monitored twice weekly, using a digital balance (Ohaus Florham, N.J.). To determine hematocrit levels, blood samples were extracted by tail vein bleedings one day after terminating treatment, and blood was collected in heparinized micro-hematocrit capillary lubes (Fisher Pittsburgh, Pa.). Samples were spun down for 10 minutes in a micro-hematocrit centrifuge (Clay-Adams; NY), and the amount of hematocrit was determined using an international microcapillary reader (IEC; Needham, Mass.).

Data set [6] is described as follows: Hematocrit levels, first (MA148) study. The settings on record: 10 mg/kg; last day of treatment; vehicle 47±5.7. The class given is in vivo, mice. How it is done: as §7
Data set [7] in a line: Hematocrit levels, study with B16 tumors in immune competent mice. Format: in vivo. The settings on record: vehicle 51±1.4. How it is done:
as §7

Data set [8] relates to MA148 human ovarian carcinoma. Particulars: 10 mg/kg/day; Dings et al., Cancer Lett 194; cited from earlier work.
Where [9] appears, read: Table 2, read-out: IC50 values (μM) for LPS binding, E. coli 055:B4.
[10] abbreviates: Table 3, errors estimated ±30%, read-out: IC50 values (μM) for LPS binding, E. coli 055:B5.

“5,11,17,23-Tetra-tert-butyl-25,26,27,28-tetrakis(4-guanidinobutoxy) calix[4]arene trifloroacetic acid salt [Compound 42]”: the IC50 (as a rule, the point on the concentration scale where inhibition reaches its midpoint) is 0.7 µM in data set [1] (Table 2); 0.7 µM in [1] (Table 3, errors estimated ±30%); 0.04 µM in [2] (setting [9]); 0.04 µM in data set [2] (setting [10]); 1.5 µM in the data set with LPS from P. aeruginosa (Table 2); 1.5 µM in the data set with LPS from P. aeruginosa (Table 3, errors estimated ±30%). Moreover, the IC50 is 1 µM in the data set on LPS from K. pneumoniae (Table 2); 1 µM in the data set on LPS from K. pneumoniae (Table 3, errors estimated ±30%); 0.6 µM in the data set on LPS from S. typhimurium (Table 2); 0.6 µM in the data set on LPS from S. typhimurium (Table 3, errors estimated ±30%); greater than 5 µM in the data set on LPS from S. marcascens (Table 2); greater than 5 µM in the data set on LPS from S. marcascens (Table 3, errors estimated ±30%). In addition, the “neutralizing LPS, ranking in words” value in [3] is “best LPS neutralizing compounds; also recorded: most effective for neutralizing LPS”. In addition, the “survival of LPS-challenged mice” value with LPS from E. coli 055:B5 is given as “ineffective”. The “sign of acute toxicity” value in data set [4] is “did not demonstrate any sign of acute toxicity”.
As to “ANIKLSVQMKLFKRHLKWKIIVKLNDGRELSLD [βpep-25, reference compound]”, the IC50 in data set [1] (Table 2) was 2 µM; in [1] (Table 3, errors estimated ±30%) it was 2 µM; in data set [2] (setting [9]), 2.5 µM; in [2] (setting [10]) it was 2.5 µM; in the data set on LPS from P. aeruginosa (Table 2), 1.2 µM; with LPS from P. aeruginosa (Table 3, errors estimated ±30%) it was 1.2 µM. Besides, the IC50 in the data set on LPS from K. pneumoniae (Table 2) was 2 µM; in the data set with LPS from K. pneumoniae (Table 3, errors estimated ±30%) it was 2 µM; in the data set on LPS from S. typhimurium (Table 2) it was 2.5 µM; in the data set with LPS from S. typhimurium (Table 3, errors estimated ±30%) it was 2.5 µM; with LPS from S. marcascens (Table 2) it was 4.1 µM; in the data set on LPS from S. marcascens (Table 3, errors estimated ±30%), 4.1 µM. The “concentration giving 50% growth inhibition, fibroblasts” value with fibroblasts is given as “no delectable effects”. In the data set with B16F10 tumor cells, the “IC50 against B16F10 tumor cells” value was “neither demonstrated activity”. Besides, the figures for the “Branch Points” value in the data set on MA148 tumor vessels and in the data set on B16F10 tumor vessels were 2.0 ± 0.5 pixel counts per image and 4.5 ± 0.6 pixel counts per image, respectively. Besides, the “End Points” value with MA148 tumor vessels amounted to 16.6 ± 1.8 pixel counts per image; in the data set with B16F10 tumor vessels, 31.9 ± 3.8 pixel counts per image. The “Vessel Density” value with MA148 tumor vessels is 7415 ± 686 pixel counts per image; in the data set with B16F10 tumor vessels, 14050 ± 1826 pixel counts per image. The “Vessel Length” value in the data set on MA148 tumor vessels turned out to be 4.9 ± 0.6 pixel counts per image; in the data set on B16F10 tumor vessels it was 10.2 ± 1.2 pixel counts per image. Further, the Apoptosis with MA148 tumor is listed as 2418 ± 77 pixel counts per image; in the data set with B16F10 tumor it was 3303 ± 606 pixel counts per image. In addition, the “signs of toxicity (behavior, weight gain, hematocrit), in words” value in [5] was “did not generally show signs of toxicity”. The “Hematocrit levels ±SD” value in data set [6] is 47±2.8 percentage of red blood cells; in data set [7], 52.5±3.5 percentage red blood cells. The “MA148 tumor inhibition shown previously” value in [8] is on record as 60 to 70%.
